Test results taken from US11053204B2, “Pyrimidinyloxy benzene derivatives as herbicides” (FMC Corporation, priority 2015, dated 2021).

Tests used:
Type in all cases: in vivo
[1] = tested on: pigweed, palmer (palmer pigweed, Amaranthus palmeri); experiment: Test C preemergence, plant response rating
[2] = tested on: johnsongrass (Sorghum halepense); experiment: Test C postemergence, plant response rating; settings: for Johnsongrass plant response rating: scale 0 to 100 (0 no effect, 100 complete control)
How it was run: (§1)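 Visual injury score, 0 = no effect, 100 = complete control, assigned against untreated controls after 13 to 15 d in the greenhouse. Compounds were applied in a surfactant-containing non-phytotoxic solvent mix, preemergence to seeded loam/sand or silt loam soil, or postemergence to 1- to 4-leaf plants (2 to 18 cm).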

[3] = tested on: nightshade (eastern black nightshade, Solanum ptycanthum); experiment: Test C postemergence, plant response rating; settings: for Nightshade plant response rating: scale 0 to 100 (0 no effect, 100 complete control)
How it was run: as §1

[4] = tested on: speedwell (bird's-eye speedwell, Veronica persica); experiment: Test C postemergence, plant response rating; settings: for Speedwell plant response rating: scale 0 to 100 (0 no effect, 100 complete control)
How it was run: as §1

[5] = tested on: windgrass (Apera spica-venti); experiment: Test C postemergence, plant response rating
How it was run: as §1

[6] = tested on: geranium, cutleaf (cutleaf geranium, Geranium dissectum); experiment: Test C postemergence, plant response rating; settings: for Geranium, Cutleaf plant response rating: scale 0 to 100 (0 no effect, 100 complete control)
How it was run: as §1

[7] = tested on: wild poinsettia (Euphorbia heterophylla); experiment: Test C postemergence, plant response rating; settings: for Poinsettia, Wild plant response rating: scale 0 to 100 (0 no effect, 100 complete control)
How it was run: as §1

[8] = tested on: buckwheat, wild (wild buckwheat, Polygonum convolvulus); experiment: Test C postemergence, plant response rating; settings: for Buckwheat, Wild plant response rating: scale 0 to 100 (0 no effect, 100 complete control)
How it was run: as §1

[9] = tested on: field violet (Viola arvensis); experiment: Test C postemergence, plant response rating; settings: for Field Violet plant response rating: scale 0 to 100 (0 no effect, 100 complete control)
How it was run: as §1

[10] = tested on: surinam grass (Brachiaria decumbens); experiment: Test C postemergence, plant response rating
How it was run: as §1

[11] = tested on: pigweed, palmer (palmer pigweed, Amaranthus palmeri); experiment: Test C postemergence, plant response rating; settings: for Pigweed, Palmer plant response rating: scale 0 to 100 (0 no effect, 100 complete control)
How it was run: as §1

[12] = tested on: field poppy (Papaver rhoeas); experiment: Test C postemergence, plant response rating; settings: for Field Poppy plant response rating: scale 0 to 100 (0 no effect, 100 complete control)
How it was run: as §1

[13] = tested on: wild mustard (Sinapis arvensis); experiment: Test C postemergence, plant response rating; settings: for Mustard, Wild plant response rating: scale 0 to 100 (0 no effect, 100 complete control)
How it was run: as §1

[14] = tested on: Canada thistle (Cirsium arvense); experiment: Test C postemergence, plant response rating; settings: for Canada Thistle plant response rating: scale 0 to 100 (0 no effect, 100 complete control)
How it was run: as §1

[15] = tested on: oat, wild (wild oat Avena fatua); experiment: Test C preemergence, plant response rating
[16] = tested on: wild poinsettia (Euphorbia heterophylla); experiment: Test C preemergence, plant response rating
[17] = tested on: johnsongrass (Sorghum halepense); experiment: Test C preemergence, plant response rating
[18] = tested on: kochia (Kochia scoparia); experiment: Test C preemergence, plant response rating
[19] = tested on: windgrass (Apera spica-venti); experiment: Test C preemergence, plant response rating
[20] = 125 g ai/ha, scale 0 to 100 (0 no effect, 100 complete control)

O=C(CCC(F)(F)F)c1c(Cl)cccc1Oc1ncc(Cl)cn1 [Compound 107, 1-[2-chloro-6-[(5-chloro-2-pyrimidinyl)oxy]phenyl]-4,4,4-trifluoro-1-butanone]
Plant response rating, Pigweed, Palmer ([1]; 31 g ai/ha, scale 0 to 100): 100
Plant response rating, Pigweed, Palmer ([1]; 62 g ai/ha, scale 0 to 100): 100
Plant response rating, Pigweed, Palmer ([1]; 125 g ai/ha, scale of 0 to 100): 100
Plant response rating, Johnsongrass ([2]; 16 g ai/ha, scale of 0 to 100): 20
Plant response rating, Johnsongrass ([2]; 31 g ai/ha, scale 0 to 100): 10
Johnsongrass plant response rating ([2]; 62 g ai/ha): 35
Johnsongrass plant response rating ([2]; 125 g ai/ha): 98
Plant response rating, Nightshade ([3]; 16 g ai/ha, scale of 0 to 100): 75
Plant response rating, Nightshade ([3]; 31 g ai/ha, scale 0 to 100): 90
Nightshade plant response rating ([3]; 62 g ai/ha): 98
Nightshade plant response rating ([3]; 125 g ai/ha): 100
Plant response rating, Speedwell ([4]; 16 g ai/ha, scale of 0 to 100): 100
Plant response rating, Speedwell ([4]; 31 g ai/ha, scale 0 to 100): 100
Speedwell plant response rating ([4]; 62 g ai/ha): 100
Speedwell plant response rating ([4]; 125 g ai/ha): 100
Plant response rating, Windgrass ([5]; 16 g ai/ha, scale of 0 to 100): 5
Plant response rating, Windgrass ([5]; 31 g ai/ha, scale 0 to 100): 15
Windgrass plant response rating [5, 20]: 50
Plant response rating, Geranium, Cutleaf ([6]; 16 g ai/ha, scale of 0 to 100): 25
Plant response rating, Geranium, Cutleaf ([6]; 31 g ai/ha, scale 0 to 100): 35
Geranium, Cutleaf plant response rating ([6]; 62 g ai/ha): 60
Geranium, Cutleaf plant response rating ([6]; 125 g ai/ha): 75
Plant response rating, Poinsettia, Wild ([7]; 16 g ai/ha, scale of 0 to 100): 70
Plant response rating, Poinsettia, Wild ([7]; 31 g ai/ha, scale 0 to 100): 75
Poinsettia, Wild plant response rating ([7]; 62 g ai/ha): 90
Poinsettia, Wild plant response rating ([7]; 125 g ai/ha): 90
Plant response rating, Buckwheat, Wild ([8]; 16 g ai/ha, scale of 0 to 100): 45
Plant response rating, Buckwheat, Wild ([8]; 31 g ai/ha, scale 0 to 100): 75
Buckwheat, Wild plant response rating ([8]; 62 g ai/ha): 75
Buckwheat, Wild plant response rating ([8]; 125 g ai/ha): 100
Plant response rating, Field Violet ([9]; 16 g ai/ha, scale of 0 to 100): 95
Plant response rating, Field Violet ([9]; 31 g ai/ha, scale 0 to 100): 98
Field Violet plant response rating ([9]; 62 g ai/ha): 98
Field Violet plant response rating ([9]; 125 g ai/ha): 100
Plant response rating, Surinam Grass ([10]; 16 g ai/ha, scale of 0 to 100): 10
Plant response rating, Surinam Grass ([10]; 31 g ai/ha, scale 0 to 100): 25
Surinam Grass plant response rating [10, 20]: 35
Plant response rating, Pigweed, Palmer ([11]; 16 g ai/ha, scale of 0 to 100): 90
Plant response rating, Pigweed, Palmer ([11]; 31 g ai/ha, scale 0 to 100): 95
Pigweed, Palmer plant response rating ([11]; 62 g ai/ha): 100
Pigweed, Palmer plant response rating ([11]; 125 g ai/ha): 100
Plant response rating, Field Poppy ([12]; 16 g ai/ha, scale of 0 to 100): 80
Plant response rating, Field Poppy ([12]; 31 g ai/ha, scale 0 to 100): 98
Field Poppy plant response rating ([12]; 62 g ai/ha): 98
Field Poppy plant response rating ([12]; 125 g ai/ha): 100
Plant response rating, Mustard, Wild ([13]; 16 g ai/ha, scale of 0 to 100): 85
Plant response rating, Mustard, Wild ([13]; 31 g ai/ha, scale 0 to 100): 90
Mustard, Wild plant response rating ([13]; 62 g ai/ha): 95
Mustard, Wild plant response rating ([13]; 125 g ai/ha): 100
Plant response rating, Canada Thistle ([14]; 16 g ai/ha, scale of 0 to 100): 80
Plant response rating, Canada Thistle ([14]; 31 g ai/ha, scale 0 to 100): 85
Canada Thistle plant response rating ([14]; 62 g ai/ha): 90
Canada Thistle plant response rating ([14]; 125 g ai/ha): 90
Plant response rating, Oat, Wild ([15]; 31 g ai/ha, scale 0 to 100): 5
Plant response rating, Oat, Wild ([15]; 62 g ai/ha, scale 0 to 100): 30
Plant response rating, Oat, Wild ([15]; 125 g ai/ha, scale of 0 to 100): 65
Plant response rating, Poinsettia, Wild ([16]; 31 g ai/ha, scale 0 to 100): 10
Plant response rating, Poinsettia, Wild ([16]; 62 g ai/ha, scale 0 to 100): 40
Plant response rating, Poinsettia, Wild ([16]; 125 g ai/ha, scale of 0 to 100): 70
Plant response rating, Johnsongrass ([17]; 31 g ai/ha, scale 0 to 100): 30
Plant response rating, Johnsongrass ([17]; 62 g ai/ha, scale 0 to 100): 70
Plant response rating, Johnsongrass ([17]; 125 g ai/ha, scale of 0 to 100): 80
Plant response rating, Kochia ([18]; 31 g ai/ha, scale 0 to 100): 100
Plant response rating, Kochia ([18]; 62 g ai/ha, scale 0 to 100): 100
Plant response rating, Kochia ([18]; 125 g ai/ha, scale of 0 to 100): 100
Plant response rating, Windgrass ([19]; 31 g ai/ha, scale 0 to 100): 100
Plant response rating, Windgrass ([19]; 62 g ai/ha, scale 0 to 100): 100
Plant response rating, Windgrass ([19]; 125 g ai/ha, scale of 0 to 100): 100
